Data: patent publication US6372297B1, “Wood preservative oxathiazines” (Uniroyal Chemical Company, Inc., priority 1993, dated 2002)
Where two headings read alike, the source gives them in different places.

Tests used:
[1] = system: blue-stain fungi and molds; test: Activity against blue-stain fungi and molds in a stick test (threshold concentrations); conditions: beech sticks, 22° C., 90% relative humidity
Description: Representative compounds of this invention were dissolved in 50% ethanol. Each compound was then diluted serially using 50% ethanol. […] After three (3) hours, the solutions containing the test compounds were poured off and the treated sticks were allowed to dry in a sterile laminar air flow. Each treated stick was then placed in a Petri dish which had been previously seeded with inoculum. Two drops of a test fungal or spore suspension were pipetted onto the upper surface of each treated stick. The Petri dishes containing the treated sticks were incubated at 22° C. and 90% relative humidity. The treated sticks were evaluated after there was sufficient growth of fungus on control sticks (i.e., untreated sticks) incubated in the same manner. The following score system was used: 0: Stick free of fungal/mold growth 1: Traces of fungal growth on the stick 2: Slight growth (5 to 25% of the surface covered with fungal growth) 3: Moderate growth (25 to 50% covered with fungal growth) 4. Vigorous to maximum fungal growth (more than 50% growth) […]

Pseudomonas alcaligenes = test: Wood preservative efficacy against bacteria and yeasts, tryptose agar plates; format: cell-based; design: key: 0 = growth equal to control, 1 = inhibition, 2 = no growth; conditions: 100 ppm in tryptose agar
Description: (§1) Compositions were prepared by dissolving the compounds shown in Table 1 in 50% ethanol and further diluting with sterile distilled water. […] After cooling, the medium was inoculated with the bacteria listed below. After sufficient growth of the untreated cultures, the compounds were evaluated using the following rating system: 0=growth equal to control 1=inhibition of growth by the compound 2=no growth under the influence of the compound. In this Table, the higher numbers are the most preferred species. Pseudomonas alcaligenes (gram neg)

Bacillus cereus mycoides = format: cell-based; design: scale not given here
Pseudomonas aeruginosa = test: Wood preservative efficacy against bacteria and yeasts, tryptose agar plates; format: cell-based; design: key: 0 = growth equal to control, 1 = growth inhibited, 2 = no growth; conditions: 100 ppm in tryptose agar
Description: as §1, with “aeruginosa” for “alcaligenes”

Flavobacterium sp. = test: as above; format: cell-based; design: key: 0 = growth equal to control, 1 = growth inhibited, 2 = no growth
Description: as §1, with “Flavobacterium sp.” for “Pseudomonas alcaligenes”

Streptomyces albus = test: as above; format: cell-based; design: key: 0 = growth equal to control, 1 = inhibition, 2 = no growth
Description: as §1, with “Streptomyces albus” for “Pseudomonas alcaligenes”, “pos)” for “neg)”

Enterobacter aerogenes = test: as above; format: cell-based; design: key: 0 = growth equal to control, 1 = inhibition, 2 = no growth
Description: as §1, with “Enterobacter aerogenes” for “Pseudomonas alcaligenes”

Escherichia coli = test: as above; format: cell-based; design: key: 0 = growth equal to control, 1 = growth inhibited, 2 = no growth
Description: as §1, with “Escherichia coli” for “Pseudomonas alcaligenes”, “[…])” for “neg)”

Coriolus versicolor = test: Wood preservative efficacy against fungi, agar plate colony diameter; format: cell-based; conditions: 10 ppm, Table 6B
Description: (§2) Each plate was inoculated with a spore suspension or with a small piece of agar (1 mm) from the margin of an actively growing colony of the test fungus. The fungi employed are listed below. After incubation at 22° C. and 70% relative humidity during a period long enough to allow significant growth of untreated controls, the diameters of the fungus colonies were measured and scored using the following rating system: 0=free of fungal growth 1=25% of fungal growth compared to untreated 2=50% of fungal growth compared to untreated 3=75% of fungal growth compared to untreated 4=Growth equal to that of untreated The scores measured for wood preservation efficacy of the compounds of this invention are listed in Tables 6a and 6b. In these Tables, the lower numbers are the most preferred species. Coriolus versicolor

Coniophora puteana = test: as above; format: cell-based; design: key: 0 = no fungal growth, 1-3 = 25/50/75% of untreated, 4 = equal; conditions: 10 ppm, Table 6B
Description: as §2, with “Coniophora puteana (syn. C. cerebella)” for “Coriolus versicolor”

Chaetomium globosum = test: as above; format: cell-based; conditions: 10 ppm, Table 6B
Description: as §2, with “Chaetomium globosum” for “Coriolus versicolor”

Mucor sp. = test: as above; format: cell-based; conditions: 100 ppm, Table 6B
Description: as §2, with “Mucor sp.” for “Coriolus versicolor”

Aspergillus flavus = test: as above; format: cell-based; conditions: 10 ppm, Table 6B
Description: as §2, with “Aspergillus flavus” for “Coriolus versicolor”

For `CC1C[S+]([O-])C(c2cccs2)=NO1` (stereo not shown) [Compound 50, 5,6-dihydro-6-methyl-3-(2-thienyl)-1,4,2-oxathiazine-4-oxide], the “Threshold concentration (ppm), A. niger, score 0” value ([1]; A. niger, minimum concentration to obtain score 0) was 1000 ppm, the “Threshold concentration (ppm), A. niger, score 1-2” value ([1]; A. niger, minimum concentration to obtain score 1-2) was 250-500 ppm and the “Threshold concentration (ppm), Aureobasidium, score 0” value ([1]; Aureobasidium, minimum concentration to obtain score 0) was >1000 ppm. The “Threshold concentration (ppm), Aureobasidium, score 1-2” value ([1]; Aureobasidium, minimum concentration to obtain score 1-2) was 100-500 ppm, the “Threshold concentration (ppm), Sclerophoma, score 0” value ([1]; Sclerophoma, minimum concentration to obtain score 0) was 100 ppm and the “Threshold concentration (ppm), Sclerophoma, score 1-2” value ([1]; Sclerophoma, minimum concentration to obtain score 1-2) was 50-100 ppm. The “Threshold concentration (ppm), Trichoderma, score 0” value ([1]; Trichoderma, minimum concentration to obtain score 0) was 5000 ppm, the “Threshold concentration (ppm), Trichoderma, score 1-2” value ([1]; Trichoderma, minimum concentration to obtain score 1-2) was 1000-2500 ppm and the melting point was 114 to 115 °C.
With `C[S+]1CCON=C1c1ccccc1` (stereo not shown) [Compound 17] the “Score of bactericidal activity, P. alcalgenes” value (Pseudomonas alcaligenes) was 0, the “Score of bactericidal activity, B. cereus mycoides” value (Bacillus cereus mycoides; 10 ppm in tryptose agar) was 0 and the “Score of bactericidal activity, B. cereus mycoides” value (Bacillus cereus mycoides; 100 ppm in tryptose agar) was 0. For the same compound, the “Score of bactericidal activity, P. aeruginosa” value (Pseudomonas aeruginosa) was 0, the “Score of bactericidal activity, Flavobacter” value (Flavobacterium sp.; 10 ppm in tryptose agar) was 0 and the “Score of bactericidal activity, Flavobacter” value (Flavobacterium sp.; 100 ppm in tryptose agar) was 0. For the same compound, the “Score of bactericidal activity, S. albus” value (Streptomyces albus; 10 ppm in tryptose agar) was 0, the “Score of bactericidal activity, S. albus” value (Streptomyces albus; 100 ppm in tryptose agar) was 0 and the “Score of bactericidal activity, E. aerogenes” value (Enterobacter aerogenes; 10 ppm in tryptose agar) was 0. For the same compound, the “Score of bactericidal activity, E. aerogenes” value (Enterobacter aerogenes; 100 ppm in tryptose agar) was 0, the “Score of bactericidal activity, E. Coli” value (Escherichia coli; 10 ppm in tryptose agar) was 0 and the “Score of bactericidal activity, E. Coli” value (Escherichia coli; 100 ppm in tryptose agar) was 0. The “Score of fungicidal activity, G. VERSICLOR” value (Coriolus versicolor) was 4, the “Score of fungicidal activity, C. PUTEANA” value (Coniophora puteana) was 4 and the “Score of fungicidal activity, C. GLOBOSUM” value (Chaetomium globosum) was 4. The “Score of fungicidal activity, MUCOR SP” value (Mucor sp.) was 4 and the “Score of fungicidal activity, A. FLAVUS” value (Aspergillus flavus) was 4.
Work on `Clc1ccc(C2=NOCCS2)s1` [Compound 59, 3-(5-chloro-2-thienyl)-5,6-dihydro-1,4,2-oxathiazine] yielded a melting point of 74 to 77 °C.
Work on `CC1CSC(c2cccs2)=NO1` (stereo not shown) [Compound 52, 5,6-dihydro-6-methyl-3-(2-thienyl)-1,4,2-oxathiazine] yielded a melting point of 70 to 72 °C.
